{
  "source": "patent US20100004333A1",
  "about": "“COMPOSITIONS AND METHODS FOR TREATING CARDIOVASCULAR DISORDERS” (priority 2004, published 2010)",
  "key": {"[1]": {"test_system": "heme oxygenase-1 (HO-1)", "test": "Heme oxygenase-1 expression, mRNA and heme oxygenase activity in rabbit aorta after balloon injury", "assay_type": "in vivo, rabbits", "conditions": "for HO-1 expression in the media of damaged aortas (immunohistochemistry): 4 days after balloon injury, FIG. 16a; for Tissue levels of HO-1 mRNA / Heme oxygenase activity in aorta: 4 days after ABI; for Tissue levels of HO-1 mRNA: FIG. 16b; for Heme oxygenase activity in aorta: FIG. 16c"}, "[2]": {"test_system": "apoE−/− mice", "test": "Atherosclerosis in apoE−/− mice: probucol versus DTBP versus BP, 5 months", "assay_type": "in vivo", "conditions": "for Atherosclerosis (lesion size) at the arch and descending aorta: 1% probucol, 0.02% BP; for Macrophages lesion area (Mac-3+): FIG. 12a, f; for Plasma cholesterol: FIG. 12c; for Proliferating cells (PCNA+): FIG. 12g; for Aortic content of neutral lipids (cholesterylesters and triglycerides): FIG. 12d", "from_the_text": "ApoE−/− mouse model. Four groups of male apoE−/− mice (8-10 weeks, Animal Resources Centre, Perth, Australia) were fed a high fat diet based on Harlan Teklad diet TD88137±1% (wt/wt) probucol (96% purity, a gift from AstraZeneca, Sweden), 0.02% DTBP, or 0.02% BP (Polysciences, Warrington, Pa.) for 5 months. Tissue harvesting and analyses were done as described in Examples 1 and 3, using 15 and 10 mice of each group for biochemical and histological analyses, respectively. Histology and immunohistochemistry. Aortic lesion assessment was carried out at four sites (sinus, arch, thoracic and abdominal aorta) as described in Example 1. Immediately adjacent sections were employed for immunohistochemistry, using Mac-3 (macrophages, dilution 1:200, DAKO), PCNA (cell proliferation, dilution 1:500, DAKO) and anti-rat HO-1 monoclonal antibody (dilution 1:50, Santa Cruz) with avidin-biotin-horseradish peroxidase for signal detection (Vectorstain Elite ABC Kit, Vector Laboratories). Apoptosis was assessed using the TUNEL assay kit (Roche) according to the manufacture's instructions. Digital images were taken for quantitative morphometric analysis. Mac-3^+ areas were determined using Adobe Photoshop V6.0 by tracing. Total cell profiles, TUNEL^+ and PCNA^+ cells were counted manually at high magnification (40× objective). A single operator using coded samples performed all analyses blinded. Heme oxygenase. Heme oxygenase activity was determined in microsomes prepared from homogenized aortic tissue and assessed by HPLC as described in Circulation 2004, 110: 1855-1860. Statistics. All data are expressed as mean±SEM. One-way ANOVA and the student-Newman-Keul's test were used to evaluate differences between groups, with P<0.05 considered significant."}, "[3]": {"test_system": "New Zealand White rabbits", "test": "Rabbit aortic balloon-injury model: intimal hyperplasia", "assay_type": "in vivo", "conditions": "for Intimal thickening / intima-to-media ratio after aortic balloon injury: 1% probucol, 0.02% DTBP, 0.02% BP, FIG. 13a, b; for Plasma total cholesterol concentration: rabbits, FIG. 13e", "protocol": "(§1) Rabbit aortic balloon-injury model. Four groups of male New Zealand White rabbits (1.8-2.2 kg, Merunga Farm, Coffs Harbour, Australia), matched for body weight and baseline plasma cholesterol, were fed 100 g per day of normal chow±1% probucol, 0.02% DTBP, or 0.02% BP (wt/wt) for up to nine weeks. Aortic balloon-injury (ABI) was carried out at the end of week three, resulting in complete endothelial denudation. Harvesting of aortas was done after a further 6 weeks (n=6 per group). Aortic lesion assessment was carried out at the 3rd pair of lumber arteries in NZW rabbits as described in Circulation 2003, 107:2031-2036. Statistics. Data are expressed as mean±SEM. One-way ANOVA and the student-Newman-Keul's test were used to evaluate differences between groups, with P<0.05 considered significant.\nMaterials and methods were as described in Examples 6 and 7, with the following addition. DTBP-s and STBP were synthesized as described in Example 10. A total of 48 New Zealand White rabbits (1.8-2.2 kg) were used for this example. Rabbits were fed normal chow (100 g/day) without (Ctrl, n=12) or with 0.02% DTBP (wt/wt, n=6), 0.02% STBP (wt/wt, n=7), 0.02% DTBP-s (wt/wt, n=11) or 0.1% DTBP-s (wt/wt, n=7) for 9 weeks. Aortic balloon-injury was carried out at the end of week three."}, "[4]": {"design": "species or system rabbits", "conditions": "rabbit, in vivo", "protocol": "as §1\nTo control for probucol's cholesterol-lowering effect, the animals were matched for baseline plasma cholesterol, and fed them a limited amount (100 g/day) of standard diet±the respective drug."}, "[5]": {"test_system": "New Zealand White rabbits", "test": "Apoptosis (TUNEL) and proliferation (PCNA) of vascular cells after aortic balloon injury in rabbits", "assay_type": "in vivo", "conditions": "for Apoptosis (TUNEL+ cells): FIG. 16d; for Cell proliferation (PCNA+ cells): FIG. 16e", "from_the_text": "Materials and methods were as described in Example 6, except that for some experiments, aortas were also harvested 4 days (n=8 per group) after balloon injury. Sections immediately adjacent sections to those used for lesion assessment were employed for immunohistochemistry, using CD31 (endothelium, dilution 1:50, DAKO), Mac-3 (macrophages, dilution 1:200, DAKO), PCNA (cell proliferation, dilution 1:500, DAKO) and anti-rat HO-1 monoclonal antibody (dilution 1:50, Santa Cruz) with avidin-biotin-horseradish peroxidase for signal detection (Vectorstain Elite ABC Kit, Vector Laboratories). Apoptosis was assessed using the TUNEL assay kit (Roche) according to the manufacture's instructions. Digital images were taken for quantitative morphometric analysis. Intimal, medial and Mac-3^+ areas were determined using Adobe Photoshop V6.0 by tracing. Re-endothelialization was determined in longitudinal sections as the distance of CD31^+ cells from the branch orifice using Scion Image Software (Scion, ML, USA). Total cell profiles, TUNEL^+ and PCNA^+ cells were counted manually at high magnification (40× objective)."}, "[6]": {"conditions": "day 4 after aortic balloon injury"}, "[7]": {"conditions": "day 42 after aortic balloon injury"}},
  "note": "Where two headings read alike, the source gives them in different places.",
  "data": [
    {"compound": "CC(C)(C)c1cc(-c2cc(C(C)(C)C)c(O)c(C(C)(C)C)c2)cc(C(C)(C)C)c1O", "note": "[BP, 3,3′,5,5′-tetra-tert-butyl-4,4′-bisphenol]", "values": [
      {"measurement": "HO-1 expression in the media of damaged aortas (immunohistochemistry)", "setting": "[1]", "value": "but not BP, induced HO-1 expression"},
      {"measurement": "Atherosclerosis (lesion size) at the arch and descending aorta", "setting": "[2]; 0.02% DTBP, 5 months, FIG. 12b", "value": "failed"},
      {"measurement": "Macrophages lesion area (Mac-3+)", "setting": "[2]; apoE−/− mice, 5 months", "value": "failed to affect"},
      {"measurement": "Plasma cholesterol", "setting": "[2]; apoE−/− mice, 5 months", "value": "failed"},
      {"measurement": "Proliferating cells (PCNA+)", "setting": "[2]; apoE−/− mice, 5 months", "value": "failed to affect"},
      {"measurement": "Intimal thickening / intima-to-media ratio after aortic balloon injury", "setting": "[3]; 6 weeks after ABI", "value": "lacked protective activity"},
      {"measurement": "Plasma total cholesterol concentration", "setting": "[3]", "value": "significantly reduced"},
      {"measurement": "Total drug in the vessel wall", "setting": "[4]", "value": "614±258 pmol total drug per mg protein"},
      {"measurement": "Apoptosis (TUNEL+ cells)", "setting": "[5]; [6]", "value": "not BP"}
    ]},
    {"compound": "CC(C)(C)c1cc(SSc2cc(C(C)(C)C)c(O)c(C(C)(C)C)c2)cc(C(C)(C)C)c1O", "note": "[DTBP, 4,4′-dithiobis(2,6-di-tert-butyl-phenol)]", "values": [
      {"measurement": "Tissue levels of HO-1 mRNA", "setting": "[1]", "value": "significantly increased"},
      {"measurement": "Heme oxygenase activity in aorta", "setting": "[1]", "value": "significantly increased"},
      {"measurement": "HO-1 expression in the media of damaged aortas (immunohistochemistry)", "setting": "[1]", "value": "induced HO-1 expression"},
      {"measurement": "Lesion size at the aortic root", "setting": "[2]; 0.02% DTBP, 5 months, FIG. 12b", "value": "did not increase"},
      {"measurement": "Atherosclerosis (lesion size) at the arch and descending aorta", "setting": "[2]; 0.02% DTBP, 5 months, FIG. 12b", "value": "significantly inhibited"},
      {"measurement": "HDL-cholesterol", "setting": "[2]; apoE−/− mice, 0.02% DTBP, 5 months, FIG. 12h", "value": "does not lower HDL-cholesterol"},
      {"measurement": "Macrophages lesion area (Mac-3+)", "setting": "[2]; apoE−/− mice, 5 months", "value": "significant decrease"},
      {"measurement": "Plasma cholesterol", "setting": "[2]; apoE−/− mice, 5 months", "value": "did not increase medium lesion size at the aortic root (FIG. 12b) or affect plasma cholesterol"},
      {"measurement": "Proliferating cells (PCNA+)", "setting": "[2]; apoE−/− mice, 5 months", "value": "significant decrease"},
      {"measurement": "Aortic content of neutral lipids (cholesterylesters and triglycerides)", "setting": "[2]; apoE−/− mice, 5 months", "value": "decreased"},
      {"measurement": "Anti-atherosclerotic activity relative to probucol", "setting": "[2]; judged from aortic drug concentration and lesion inhibition", "value": "greater anti-atherosclerotic activity than probucol"},
      {"measurement": "Protection against balloon injury-induced intimal hyperplasia", "setting": "[3]; 0.02% wt/wt in chow, 9 weeks, ABI at end of week three, FIG. 21", "value": "significant protection"},
      {"measurement": "Intimal thickening / intima-to-media ratio after aortic balloon injury", "setting": "[3]; 6 weeks after ABI", "value": "significantly decreasing"},
      {"measurement": "Vessel content of non-oxidized lipid", "setting": "[3]; 6 weeks after ABI, FIG. 13c", "value": "without altering"},
      {"measurement": "Vessel content of oxidized lipid", "setting": "[3]; 6 weeks after ABI, FIG. 13d", "value": "without altering"},
      {"measurement": "Protection against balloon injury-induced intimal hyperplasia, dependence on concentration", "setting": "[3]; I/M ratio 6 weeks after ABI, FIG. 14", "value": "in a concentration-dependent manner"},
      {"measurement": "Activity on a molar base relative to probucol", "setting": "[3]; from relative aortic drug concentrations and in vivo protection", "value": "more active than probucol"},
      {"measurement": "Plasma total cholesterol concentration", "setting": "[3]", "value": "without effect"},
      {"measurement": "Total drug in the vessel wall", "setting": "[4]; male, New Zealand White, 9 weeks", "value": "235±64 pmol total drug per mg protein"},
      {"measurement": "Bioavailability relative to probucol", "setting": "[4]", "value": "greater bioavailability than probucol"},
      {"measurement": "Cell proliferation (PCNA+ cells)", "setting": "[5]; day 4 after ABI", "value": "not day 4"},
      {"measurement": "Apoptosis (TUNEL+ cells)", "setting": "[5]; [6]", "value": "significantly enhanced apoptosis"},
      {"measurement": "Cell proliferation (PCNA+ cells)", "setting": "[5]; day 42 after ABI", "value": "significant decrease in cell proliferation"},
      {"measurement": "Apoptosis (TUNEL+ cells)", "setting": "[5]; [7]", "value": "not at day 42"}
    ]},
    {"compound": "CC(C)(Sc1cc(C(C)(C)C)c(O)c(C(C)(C)C)c1)Sc1cc(C(C)(C)C)c(O)c(C(C)(C)C)c1", "note": "[probucol]", "values": [
      {"measurement": "Tissue levels of HO-1 mRNA", "setting": "[1]", "value": "significantly increased"},
      {"measurement": "Heme oxygenase activity in aorta", "setting": "[1]", "value": "significantly increased"},
      {"measurement": "HO-1 expression in the media of damaged aortas (immunohistochemistry)", "setting": "[1]", "value": "induced HO-1 expression"},
      {"measurement": "Atherosclerosis (lesion size) at the arch and descending aorta", "setting": "[2]; 0.02% DTBP, 5 months, FIG. 12b", "value": "significantly inhibited"},
      {"measurement": "Macrophages lesion area (Mac-3+)", "setting": "[2]; apoE−/− mice, 5 months", "value": "significant decrease"},
      {"measurement": "Proliferating cells (PCNA+)", "setting": "[2]; apoE−/− mice, 5 months", "value": "significant decrease"},
      {"measurement": "Aortic content of neutral lipids (cholesterylesters and triglycerides)", "setting": "[2]; apoE−/− mice, 5 months", "value": "decreased"},
      {"measurement": "Intimal thickening / intima-to-media ratio after aortic balloon injury", "setting": "[3]; 6 weeks after ABI", "value": "Inhibit Intimal Thickening"},
      {"measurement": "Plasma total cholesterol concentration", "setting": "[3]", "value": "significantly reduced"},
      {"measurement": "Total drug in the vessel wall", "setting": "[4]", "value": "663±114 pmol total drug per mg protein"},
      {"measurement": "Cell proliferation (PCNA+ cells)", "setting": "[5]; day 4 after ABI", "value": "not day 4"},
      {"measurement": "Apoptosis (TUNEL+ cells)", "setting": "[5]; [6]", "value": "significantly enhanced apoptosis"},
      {"measurement": "Cell proliferation (PCNA+ cells)", "setting": "[5]; day 42 after ABI", "value": "significant decrease in cell proliferation"},
      {"measurement": "Apoptosis (TUNEL+ cells)", "setting": "[5]; [7]", "value": "not at day 42"}
    ]}
  ]
}
